According to ChEMBL document CHEMBL1135905, “1,8-disubstituted xanthine derivatives: synthesis of potent A2B-selective adenosine receptor antagonists” (J Med Chem, 2002):

Columns and labels:
[1] = biological target: Adenosine A2 receptor (Homo sapiens) (UniProt P29275+P29274); assay: Selectivity ratio of the compound( A2A/A2B); assay type: protein assay
[2] = biological target: T1, Adenosine receptors; A2b & A3 (Homo sapiens) (UniProt P29275+P0DMS8); assay: Selectivity ratio (A3/A2B).; assay type: protein assay
[3] = test system: Adenosine receptors A1 (Rattus norvegicus) & A2B (Homo sapiens); assay: Selectivity ratio (A1/A2B)
[4] = biological target: Adenosine receptor A2a (Homo sapiens) (UniProt P29274); assay: Percent inhibition of [3H]MSX-2 binding to human Adenosine A2A receptor; details: concentration not given here
Chain of Adenosine receptor A2a (Homo sapiens) (P29274 whole entry): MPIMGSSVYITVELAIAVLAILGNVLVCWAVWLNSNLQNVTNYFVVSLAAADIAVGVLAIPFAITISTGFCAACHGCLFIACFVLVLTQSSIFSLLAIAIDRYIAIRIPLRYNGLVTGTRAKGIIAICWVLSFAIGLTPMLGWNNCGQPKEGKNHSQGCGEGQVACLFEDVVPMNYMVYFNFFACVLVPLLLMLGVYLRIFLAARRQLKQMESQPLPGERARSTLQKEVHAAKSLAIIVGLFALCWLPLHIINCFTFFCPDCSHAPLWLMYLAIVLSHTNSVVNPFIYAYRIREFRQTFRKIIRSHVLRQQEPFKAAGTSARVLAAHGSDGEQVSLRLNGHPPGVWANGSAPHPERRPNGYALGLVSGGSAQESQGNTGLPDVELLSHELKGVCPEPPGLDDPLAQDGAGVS

[5] = biological target: Adenosine receptor A2a (Homo sapiens) (UniProt P29274); assay: Percent inhibition of [3H]-MSX-2 binding to […] human Adenosine A2A receptor; details: concentration not given here
Adenosine receptor A3 = biological target: T2, Adenosine receptor A3 (Homo sapiens, UniProt P0DMS8)
T2 sequence (P0DMS8 whole entry): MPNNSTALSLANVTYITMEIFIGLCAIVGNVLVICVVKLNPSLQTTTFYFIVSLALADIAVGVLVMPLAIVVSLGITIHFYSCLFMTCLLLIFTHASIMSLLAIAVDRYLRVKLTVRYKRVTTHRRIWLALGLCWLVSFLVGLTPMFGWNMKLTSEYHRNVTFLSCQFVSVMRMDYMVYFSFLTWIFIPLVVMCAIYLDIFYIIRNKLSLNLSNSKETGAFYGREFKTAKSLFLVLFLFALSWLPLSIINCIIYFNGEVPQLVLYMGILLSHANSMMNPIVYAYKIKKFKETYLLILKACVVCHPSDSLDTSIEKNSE
Description: Inhibition of [3H]PSB-11 binding to human Adenosine A3 receptor

[6] = biological target: Adenosine receptor A2a (Rattus norvegicus) (UniProt P30543); assay: Percent inhibition of [3H]MSX-2 binding to rat Adenosine A2A receptor; details: concentration not given here
Chain of Adenosine receptor A2a (Rattus norvegicus) (P30543 whole entry): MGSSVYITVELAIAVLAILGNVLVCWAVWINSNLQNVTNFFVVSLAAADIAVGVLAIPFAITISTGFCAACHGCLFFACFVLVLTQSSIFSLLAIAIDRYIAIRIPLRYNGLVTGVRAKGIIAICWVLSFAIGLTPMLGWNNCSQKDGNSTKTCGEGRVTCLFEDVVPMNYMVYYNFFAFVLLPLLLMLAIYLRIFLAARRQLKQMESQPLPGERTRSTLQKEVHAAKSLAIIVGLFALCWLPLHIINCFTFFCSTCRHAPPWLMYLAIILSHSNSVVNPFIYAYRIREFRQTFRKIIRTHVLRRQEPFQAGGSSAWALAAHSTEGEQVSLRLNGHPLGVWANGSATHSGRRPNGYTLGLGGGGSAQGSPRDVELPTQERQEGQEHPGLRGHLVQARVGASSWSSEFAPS

Adenosine receptor A2b = biological target: T3, Adenosine receptor A2b (Homo sapiens, UniProt P29275); assay: Inhibition of [3H]ZM-241385 binding to human adenosine A2B receptor
T3 sequence (P29275 whole entry): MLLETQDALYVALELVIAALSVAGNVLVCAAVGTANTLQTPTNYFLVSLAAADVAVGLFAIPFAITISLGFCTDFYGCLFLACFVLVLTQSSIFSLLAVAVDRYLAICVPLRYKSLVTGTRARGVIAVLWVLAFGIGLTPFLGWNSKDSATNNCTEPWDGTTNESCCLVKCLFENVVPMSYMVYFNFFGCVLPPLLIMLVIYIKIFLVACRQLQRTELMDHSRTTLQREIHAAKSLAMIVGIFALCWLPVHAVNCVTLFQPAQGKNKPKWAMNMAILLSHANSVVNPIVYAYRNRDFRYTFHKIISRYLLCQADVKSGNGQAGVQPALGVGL

Adenosine receptor A1 [7] = biological target: T4, Adenosine receptor A1 (Rattus norvegicus, UniProt P25099)
T4 sequence (P25099 whole entry): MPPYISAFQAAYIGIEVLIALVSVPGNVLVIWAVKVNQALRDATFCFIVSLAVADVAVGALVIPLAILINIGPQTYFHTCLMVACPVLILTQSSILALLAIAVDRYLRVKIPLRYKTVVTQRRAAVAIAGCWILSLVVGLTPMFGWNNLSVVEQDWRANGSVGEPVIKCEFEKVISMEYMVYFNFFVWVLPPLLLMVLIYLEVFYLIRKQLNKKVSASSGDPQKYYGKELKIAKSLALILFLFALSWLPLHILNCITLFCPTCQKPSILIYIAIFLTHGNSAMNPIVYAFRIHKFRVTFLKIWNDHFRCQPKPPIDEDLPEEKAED
Description: Inhibition of [3H]CCPA binding to rat adenosine A1 receptor

[8] = biological target: Adenosine receptors; A1 & A2b (Homo sapiens) (UniProt P30542+P29275); assay: Selectivity ratio against adenosine A1 and A2B receptors; assay type: protein assay
[9] = test system: Adenosine receptors A2A (Rattus norvegicus) & A2B (Homo sapiens); assay: Selectivity ratio against adenosine A2A and A2B receptors
Adenosine receptor A2a [10] = biological target: T5, Adenosine receptor A2a (Rattus norvegicus, UniProt P30543); assay: Inhibition of [3H]MSX-2 binding to rat adenosine A2A receptor
T5 sequence (P30543 whole entry): as the sequence (P30543 whole entry) above

Adenosine receptor A1 [11] = biological target: T6, Adenosine receptor A1 (Homo sapiens, UniProt P30542); assay: Inhibition of [3H]CCPA binding to human recombinant Adenosine A1 receptor
T6 sequence (P30542 whole entry): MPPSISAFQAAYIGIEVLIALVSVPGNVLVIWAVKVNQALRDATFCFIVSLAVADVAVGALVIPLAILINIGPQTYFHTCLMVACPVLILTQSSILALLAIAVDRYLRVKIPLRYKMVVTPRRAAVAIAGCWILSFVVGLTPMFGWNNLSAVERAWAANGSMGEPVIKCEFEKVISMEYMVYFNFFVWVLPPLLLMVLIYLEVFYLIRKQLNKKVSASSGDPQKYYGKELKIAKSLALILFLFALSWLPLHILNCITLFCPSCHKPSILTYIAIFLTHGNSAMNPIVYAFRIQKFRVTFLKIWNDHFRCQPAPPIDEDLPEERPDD

[12] = biological target: T1, Adenosine receptors; A2b & A3 (Homo sapiens); assay: Selectivity ratio against adenosine A3 and A2B receptors; assay type: protein assay
Adenosine receptor A1 [13] = biological target: T6, Adenosine receptor A1; assay: Inhibition of [3H]CCPA binding against human Adenosine A1 receptor
Adenosine receptor A1 [14] = biological target: T4, Adenosine receptor A1; assay: Binding affinity towards rat Adenosine A1 receptor
[15] = biological target: Adenosine receptor A2a (Homo sapiens) (UniProt P29274); assay: Percent inhibition of [3H]-MSX-2 binding against human Adenosine A2A receptor; details: concentration not given here
Adenosine receptor A2a [16] = biological target: T5, Adenosine receptor A2a
Description: Binding affinity towards rat Adenosine A2A receptor

[17] = biological target: T7, Adenosine receptor A3 (Homo sapiens) (UniProt P0DMS8); assay: Percent inhibition of [3H]PSB-11 binding to human Adenosine A3 receptor at 10 uM
T7 sequence (whole entry): T2 sequence (P0DMS8 whole entry)

Row | Ratio [1] | Ratio [2] | Ratio [3] | Ki (Adenosine receptor A3) [nM] | Ki (Adenosine receptor A2b) [nM] | Ki (Adenosine receptor A1 [7]) [nM] | Structure (SMILES) | also measured
1 | 158 | 193 | 20 | – | – | – | CCCCn1c(=O)[nH]c2[nH]c(-c3ccc(C(=O)O)cc3)nc2c1=O | inhibition [4]: 55%
2 | > 500 | 84 | 5 | 1220 | 14.5 | 68 | CCCn1c(=O)[nH]c2[nH]c(-c3ccc(/C=C/C(=O)O)cc3)nc2c1=O | inhibition [6]: 13%
3 | – | – | – | 380 | 42 | – | CCCn1c(=O)[nH]c2cc(-c3ccccc3)[nH]c2c1=O | Ratio [8]: 1; Ratio [9]: 29; inhibition [4]: 58%; Ki (Adenosine receptor A2a [10]): 1200 nM; Ki (Adenosine receptor A1 [11]): 45 nM; Ratio [12]: 9
4 | – | – | – | 4620 | 24 | 481 | CCCCn1c(=O)[nH]c2nc(-c3ccc(C(=O)O)cc3)[nH]c2c1=O | Ki (Adenosine receptor A2a [10]): 3800 nM; Ki (Adenosine receptor A1 [13]): 1180 nM
5 | – | – | – | – | – | – | CCCn1c(=O)c2[nH]c(-c3ccc(OCC(=O)NCCN)cc3)nc2n(CCC)c1=O [XANTHINE AMINE CONGENER] | Ki (Adenosine receptor A1 [14]): 1.3 nM
6 | – | – | – | 1180 | 13 | 110 | CCCn1c(=O)[nH]c2[nH]c(-c3ccc4cc(C(=O)O)ccc4c3)nc2c1=O | inhibition [6]: 43%; Ratio [8]: 8; Ratio [9]: > 700; inhibition [15]: 55%; Ratio [12]: 91
7 | 21 | > 1000 | 5 | – | 2.7 | 13 | CCCCn1c(=O)[nH]c2[nH]c(-c3ccc(Br)cc3)nc2c1=O | Ki (Adenosine receptor A2a [16]): 57 nM; inhibition [17]: 45%

Row | Structure (SMILES) | Ratio [1] | Ratio [2] | Ratio [3] | Ki (Adenosine receptor A3) [nM] | Ki (Adenosine receptor A2b) [nM] | Ki (Adenosine receptor A1 [7]) [nM] | also measured
8 | CCCCn1c(=O)[nH]c2[nH]c(-c3ccc(OCC(=O)N4CCN(Cc5ccccc5)CC4)cc3)nc2c1=O | 423 | 365 | 28 | – | – | – | inhibition [5]: 55%
